Laboratory results as given in patent US5409934A, “Xanthine derivatives” (priority 1990, dated 1995).

What was measured:
PDE (IV) = test: Inhibition of phosphodiesterase PDE IV (cAMP-specific), boronate column method; assay type: biochemical, guinea-pig; conditions: cAMP as substrate, 37° C., pH 7.5; read-out: Inhibition of PDE expressed as IC50, PDE (IV)
Experimental: (§1) The Ca^2+ /calmodulin-stimulated PDE (PDE I, see Table 1 and Beavo and Reifsynder (1990) for nomenclature) was prepared from bovine cardiac ventricle. Following chromatography on a Mono Q column, the fractions showing stimulation of PDE activity by CA^2+ and calmodulin were pooled and further purified on a calmodulin-affinity column. […] Initial chromatography on a 20 ml Mono Q column resolved PDE III from a peak that contained both PDE II and PDE IV. The latter were separated by a cGMP-affinity column. The resolved PDEs were separately rechromatographed on a 1 ml Mono Q column. cGMP-selective PDE (PDE V) was obtained from porcine lung using chromatography on DEAE-cellulose and Mono Q columns; a calmodulin-affinity column was used to remove residual PDE I activity.
PDE activity was assayed by the boronate column method as previously described (Reeves et al., 1987). The enzymes were assayed by incubation at 37° C. for 4-30 min in 50 mM Tris, 5 mM MgCl2, pH 7.5 with ^3 H-labelled cyclic nucleotide (4×105 disintegrations min^-1) and ^14 C-labelled nucleotide 5'-monophosphate (3×10^3 disintegrations min^-1). The assay was stopped by boiling, and the ^3 H-labelled 5'-monophosphate product separated from substrate on boronate columns. The reaction mixture was diluted with 0.5 mL 100 mM HEPES [N-(2-hydroxyethyl)piperazine-N ^1 -2-ethanesulfonic acid], 100 mM NaCl, pH 8.5, and applied to the column. The column was extensively washed with the same buffer, and the 5'-nucleotide eluted with 6mL of 0.25M acetic acid.

PDE (V) = PDE (V) (Sus scrofa, UniProt A0A287B475); test: Inhibition of phosphodiesterase PDE V (cGMP-specific), boronate column method; assay type: biochemical, porcine; conditions: 37° C., pH 7.5; read-out: Inhibition of PDE expressed as IC50, PDE (V)
Experimental: The latter were separated by a cGMP-affinity column. The resolved PDEs were separately rechromatographed on a 1 ml Mono Q column. cGMP-selective PDE (PDE V) was obtained from porcine lung using chromatography on DEAE-cellulose and Mono Q columns; a calmodulin-affinity column was used to remove residual PDE I activity. PDEV This isoenzyme had high affinity for cGMP. […] PDE activity was assayed by the boronate column method as previously described (Reeves et al., 1987). The enzymes were assayed by incubation at 37° C. for 4-30 min in 50 mM Tris, 5 mM MgCl2, pH 7.5 with ^3 H-labelled cyclic nucleotide (4×105 disintegrations min^-1) and ^14 C-labelled nucleotide 5'-monophosphate (3×10^3 disintegrations min^-1). The assay was stopped by boiling, and the ^3 H-labelled 5'-monophosphate product separated from substrate on boronate columns. […] The column was extensively washed with the same buffer, and the 5'-nucleotide eluted with 6mL of 0.25M acetic acid.

blood eosinophilia = test: Sephadex induced blood eosinophilia in the rat; assay type: in vivo, Male Charles River Sprague Dawley rats; conditions: 30 min before each Sephadex injection, n = 6
Experimental: Induction of blood eosinonhilia and the effects of drugs.
Male Charles River Sprague Dawley rats weighing between 270 to 400 g were used.
The method used was a modification of that described by Laycock et al (Int. Arch. Appl. Immunol, (1986). 81, 363).
Sephadex G200, particle size 40 to 120 micron, was suspended in isotonic saline at 0.5 mg/ml, and stored for 48 h at 4° C. 1 ml of the suspension was given intravenously to rats on days 0, 2 and 5. The test compound was given before the Sephadex on each occasion, with a contact time expected to give maximum activity at the time of the Sephadex administration. Blood was taken from the tail vein of the rats on day 7 for the determination of total and differential leucocyte counts.
A control group of at least 6 animals was included each time a compound was evaluated. The control group received Sephadex and the vehicle without test compound. The results in the drug treated animals were compared with the control group.
[…] of blood, taken from the tail vein of the rats, were added to 10 ml of Isoton II and, within 30rain, Zapoglobin (3 drops) was added, to lyse the erythrocytes. Five minutes later the total cell count was determined using a Coulter Counter Model DN. […] A minimum of 400 cells were counted on each slide.
Probability values were calculated using the Student's t test. […]

[1] = system: cAMP-specific PDE (PDE IV); test: Kinetic properties of phosphodiesterase isoenzyme IV; assay type: biochemical, guinea-pig; conditions: substrate of PDE IV, class symbol
Experimental: as §1, with “Following” for “The Ca^2+ /calmodulin-stimulated PDE (PDE I, see Table 1 and Beavo and Reifsynder (1990) for nomenclature) was prepared from bovine cardiac ventricle. Following”
(§2) The assay was stopped by boiling, and the ^3 H-labelled 5'-monophosphate product separated from substrate on boronate columns. The reaction mixture was diluted with 0.5 mL 100 mM HEPES [N-(2-hydroxyethyl)piperazine-N ^1 -2-ethanesulfonic acid], 100 mM NaCl, pH 8.5, and applied to the column. The column was extensively washed with the same buffer, and the 5'-nucleotide eluted with 6mL of 0.25M acetic acid.

[2] = system: cGMP-stimulated PDE (PDE II); test: Kinetic properties of phosphodiesterase isoenzyme II; assay type: biochemical, guinea-pig; conditions: substrate of PDE II; enzyme displayed positive cooperativity
Experimental: as §1, with “Following” for “The Ca^2+ /calmodulin-stimulated PDE (PDE I, see Table 1 and Beavo and Reifsynder (1990) for nomenclature) was prepared from bovine cardiac ventricle. Following”
as §2

[3] = system: cGMP-inhibited PDE (PDE III); test: Kinetic properties of phosphodiesterase isoenzyme III; assay type: biochemical, guinea-pig; conditions: substrate of PDE III
Experimental: as §1, with “Following” for “The Ca^2+ /calmodulin-stimulated PDE (PDE I, see Table 1 and Beavo and Reifsynder (1990) for nomenclature) was prepared from bovine cardiac ventricle. Following”
as §2

[4] = system: Ca^2+ /calmodulin-stimulated PDE (PDE I); test: Kinetic properties of phosphodiesterase isoenzyme I; assay type: biochemical, bovine; conditions: substrate of PDE I
Experimental: as §1, with “Following” for “The Ca^2+ /calmodulin-stimulated PDE (PDE I, see Table 1 and Beavo and Reifsynder (1990) for nomenclature) was prepared from bovine cardiac ventricle. Following”
as §2

[5] = system: cGMP-specific PDE (PDE V); test: Kinetic properties of phosphodiesterase isoenzyme V; assay type: biochemical, porcine; conditions: substrate of PDE V
Experimental: as §1, with “Following” for “The Ca^2+ /calmodulin-stimulated PDE (PDE I, see Table 1 and Beavo and Reifsynder (1990) for nomenclature) was prepared from bovine cardiac ventricle. Following”
PDEV This isoenzyme had high affinity for cGMP.
as §2

Structure (SMILES)	IC50 (PDE (IV)) [µM]	IC50 (PDE (V)) [µM]	further results
Nc1nc2c(c(=O)n(CC3CC3)c(=O)n2CC2CC2)n1S(=O)(=O)c1ccccc1 [Example 1, 8-Amino-7-benzenesulphonyl-1,3-di(cyclopropylmethyl)xanthine]	3	4	
COc1ccc(S(=O)(=O)n2c(N)nc3c2c(=O)n(CC2CC2)c(=O)n3CC2CC2)cc1OC [Example 3, 8-Amino-1,3-di-(cyclopropylmethyl)-7-(3,4-dimethoxy-benzenesulphonyl)xanthine]	4	0.2	
Nc1nc2c(c(=O)n(CC3CC3)c(=O)n2CC2CC2)n1S(=O)(=O)c1ccc(Cl)cc1 [Example 9, 8-Amino-1,3-di(cylcopropylmethyl)-7-(4-chlorobenzenesulphonyl)xanthine]	4		
Nc1nc2c(ncn2[C@@H]2O[C@@H]3COP(=O)(O)O[C@H]3[C@H]2O)c(=O)[nH]1 [cGMP]			Km [1]: > 100 µM; Km [2]: 14 µM; Km [3]: 0.1 µM; Km [4]: 5 µM; Km [5]: 1 µM

Now from value to molecule, other results behind:

IC50 (PDE (IV)) [µM]	IC50 (PDE (V)) [µM]	Structure (SMILES)	further results
3	0.4	COc1ccc(S(=O)(=O)n2c(N)nc3c2c(=O)n(CC2CC2)c(=O)n3CC2CC2)cc1 [Example 2, 8-Amino-1,3-di(cyclopropylmethyl)-7-(4-methoxybenzenesulphonyl)xanthine]	Eosinophilia, % of Control Mean ± SEM (blood eosinophilia; 20 mg/kg orally, *p < 0.05): 62 ± 7 % of Control; Eosinophilia, % of Control Mean ± SEM (blood eosinophilia; 50 mg/kg orally, **p < 0.01): 51 ± 7 % of Control
11	> 100	COc1ccc(S(=O)(=O)n2c(Cl)nc3c2c(=O)n(CC2CC2)c(=O)n3CC2CC2)cc1 [Example 7, 8-Chloro-1,3-di(cyclopropylmethyl)-7-(4-methoxybenzenesulphonyl)xanthine]	
> 100	7	COc1ccc(Cn2c(N(S(=O)(=O)c3ccccc3)S(=O)(=O)c3ccccc3)nc3c2c(=O)n(CC2CC2)c(=O)n3CC2CC2)cc1 [Example 23, 1,3-Di(cyclopropylmethyl)-8-di(benzenesulphonyl)amino-7-(4-methoxy-benzyl)xanthine]	
> 100		COc1ccc(S(=O)(=O)Nc2nc3c(c(=O)n(CC4CC4)c(=O)n3CC3CC3)n2Cc2cc(OC)c(OC)c(OC)c2)cc1 [Example 25, 1,3-Di(cyclopropylmethyl)-8-(4-methoxybenzenesulphonamido)-7-(3,4,5-trimethoxybenzyl)xanthine]	
